Key:
EGFR = molecular target: T1, EGFR (Homo sapiens, UniProt P00533); assay: EGFR ELISA assay (in vitro kinase activity, EGFR captured from A431 cell lysate); assay type: biochemical; parameters: concentration or dose not given beside the values
T1 construct: Add 7 ug A431 cell lysate per well (EGFR source); endogenous in cells; host or cells: A431
From the text: To provide a consistent method for measuring the in vitro kinase activity of the EGFR in an Enzyme-linked immunosorbent assay (Elisa).
Scope. The following protocol describes the procedures used to analyze protein tyrosine kinase activity on the EGFR in an Elisa. The procedure also describes the protocol for the initial screening of drugs for inhibition or activation of protein tyrosine kinase activity.
Reagents and Supplies. • 1. […] 05-101 monoclonal anti-EGFR antibody (commercially available from UB1) -80° C, 1 ml aliquots • 3. […] TBST Buffer Formulation: 50 mM Tris pH 7.2 150 mM NaCl 0.1% Triton X-100 • 5. Blocking Buffer Formulation: 5% Carnation Instant Milk in PBS • 6. A431 cell lysate A431 cells are available from a variety of commercial sources and may be used lysed using conventional methods known to those skilled in the art or as described for lysis of the 3T3 cells in the EGF cellular assay described herein. -80° C, 1 ml aliquots • 7. TBS Buffer Formulation: 50 mM Tris pH 7.2 150 mM NaCl • 8. […] NUNC 96-well V bottom polypropylene plates Applied Scientific Catalog # AS-72092 • 11. EDTA Formulation: 200 mM EDTA pH 8.0 • 12. […] Goat anti-rabbit IgG peroxidase conjugate Biosource Catalog # ALI0404 • 14. ABTS Solution Formulation: 100 mM Citric Acid (anhydrous) 250 mM Na2HPO4 pH 4.0 0.5 mg/ml ABTS (2,2'-azino-bis(3-ethylbenzthiazoline-6-sulfonic acid) (Sigma Catalog # A-1888) Keep solution in dark at 4 C until ready to use • 15. Hydrogen peroxide 30% solution Fisher Catalog # H325 Store in the dark at 4 C until ready to use • 16. ABTS/H2O2 Formulation: 15 mls ABTS solution 2 ul H2O2 Prepare 5 minutes before use and room temperature • 17. 0.2 M HCL stock in H2O Procedure. • 1. Coat Corning 96-well elisa plates with 0.5 ug per well 05-101 antibody. Bring final volume to 100 ul per well with PBS. Coat plates overnight at 4° C. • 2. Remove unbound 05-101 from wells by inverting plate to remove liquid. Wash 1x with distilled H2O by filling wells Pat the plate on a paper towel to remove excess liquid. • 3. Block plates with 5% milk in PBS. 150 ul per well. Incubate plate 30 minutes while shaking on a microtiter plate shaker. • 4. Wash plate 3x with dionized water, then once with TBST • 5. Add 7 ug A431 cell lysate per well (EGFR source). Add PBS to final volume of 100 ul per well Incubate 30 minutes while shaking. • 6. Wash as described in step 4. • 7. At this point, drugs or extracts are added to the wells. Dilute drugs/extracts 1:100 (unless specified otherwise) in TBS + 10% DMSO in 96-well polypropylene plates. Add 120 ul TBS to ELISA plate containing captured EGFR. Add 13.5 ul diluted drugs/extracts to ELISA plate. […] Incubate plate 30 minutes while shaking. • 8. […] (150 ul final volume in well with 3 uM ATP/5 mM MnCl2 final concentration in well.) Incubate 5 minutes while shaking vigorously. *NOTE: It is critical that ATP/MnCl2 phosphorylates the receptor for 5 minutes only. It is best to add the ATP/MnCl2 with an 12 channel pipettor 1 row at a time leaving 20 seconds between each row so that the reaction may be stopped with EDTA exactly 5 minutes later (this depends on the number of plates being phosphorylated in one batch). Shake between each addition. • 9. After 5 minutes, to stop reaction, add 16.5 ul of 200 mM EDTA pH 8.0 for 20 mM final in well, shaking continuously between each addition. This is done using the same timing method as above. After last row has received EDTA, shake plate an additional minute. • 10. Wash 4x with deionized water, twice with TBST. • 11. Add rabbit polyclonal anti-phosphotyrosine serum. Dilute 1:3000 in TBST. Add 100 ul per well. Incubate 30-45 minutes while shaking. • 12. Wash as described above in step 4. • 13. Add BioSource anti-rabbit peroxidase conjugate antibody. Dilute 1:2000 in TBST. Add 100 ul per well. Incubate 30 minutes while shaking. • 14. Wash as described in step 4. • 15. Add 100 ul of ABTS/H2O2 solution to well. Incubate 5 to 10 minutes while shaking. Remove bubbles • 16. […]

MET = MET biochemical kinase assay; parameters: species or system human; concentration or dose not given beside the values
From the text: A met biochemical kinase assay may be performed for met generally as described above for other kinases by substituting that or the other kinases. In particular, ELISA plates are coated with goat anti-rabbit Fc antibodies, which are used to capture commercially available (from Santa Cruz Biotechnology) rabbit polyclonal antibodies to the cytoplasmic domain of human MET. […] The chimeric receptors, or MET, from these lysates are captured on the antibody coated plates. After washing away extraneous proteins, test compounds are added and an in vitro kinase assay is performed by addition of an appropriate kinase buffer (containing ATP, divalent metal ions, etc.). Incorporation of phosphate into the captured receptors is detected with an anti-phosphotyrosine antibody conjugate with horse radish peroxidase using TMB as a substrate for colorimetric detection.

T1 sequence (P00533 25-1210): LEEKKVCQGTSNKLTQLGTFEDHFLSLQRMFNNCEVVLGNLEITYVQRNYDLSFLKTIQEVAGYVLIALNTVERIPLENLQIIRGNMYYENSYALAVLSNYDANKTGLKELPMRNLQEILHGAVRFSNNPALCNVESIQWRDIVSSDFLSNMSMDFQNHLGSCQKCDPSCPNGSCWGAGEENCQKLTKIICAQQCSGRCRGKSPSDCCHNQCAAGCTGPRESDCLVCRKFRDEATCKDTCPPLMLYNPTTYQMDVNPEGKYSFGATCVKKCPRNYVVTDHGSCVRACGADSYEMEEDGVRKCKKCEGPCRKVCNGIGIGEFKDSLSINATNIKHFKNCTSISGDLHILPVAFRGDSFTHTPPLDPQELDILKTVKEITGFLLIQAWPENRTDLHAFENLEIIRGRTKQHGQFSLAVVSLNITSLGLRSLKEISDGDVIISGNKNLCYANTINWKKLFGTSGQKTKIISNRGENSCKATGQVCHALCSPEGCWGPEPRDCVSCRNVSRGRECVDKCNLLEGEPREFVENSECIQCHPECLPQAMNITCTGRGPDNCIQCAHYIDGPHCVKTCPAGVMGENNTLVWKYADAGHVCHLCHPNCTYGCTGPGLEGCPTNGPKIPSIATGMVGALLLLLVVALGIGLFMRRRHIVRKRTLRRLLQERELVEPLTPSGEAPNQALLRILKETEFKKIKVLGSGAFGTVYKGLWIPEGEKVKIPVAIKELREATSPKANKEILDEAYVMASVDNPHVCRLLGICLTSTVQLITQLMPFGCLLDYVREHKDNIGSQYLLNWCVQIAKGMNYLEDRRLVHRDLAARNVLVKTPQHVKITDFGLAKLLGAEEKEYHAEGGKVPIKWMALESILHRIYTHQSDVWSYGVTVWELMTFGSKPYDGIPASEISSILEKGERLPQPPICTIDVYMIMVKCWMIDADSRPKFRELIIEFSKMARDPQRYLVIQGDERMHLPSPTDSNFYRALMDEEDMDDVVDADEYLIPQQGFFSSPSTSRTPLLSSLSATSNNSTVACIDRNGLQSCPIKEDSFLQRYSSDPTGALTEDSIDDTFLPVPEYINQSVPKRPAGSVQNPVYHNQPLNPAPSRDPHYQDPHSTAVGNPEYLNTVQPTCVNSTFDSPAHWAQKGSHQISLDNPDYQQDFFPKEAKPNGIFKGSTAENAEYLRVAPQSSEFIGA

Compound	Biochem EGFR %Inhibition (EGFR) [%]	Met Kinase % Inhibition (MET) [%]
Cc1c(Br)ccc2c1C(=CC(c1cccs1)C(F)(F)F)C(=O)N2 (centres unmarked) [10732/C02]	-6.5	40.1
COc1ccc(C=C2C(=O)Nc3ccc(I)cc32)cc1C(C)(C)C [10732/B05]	17.0	71.2
CC(C)(C)c1cc(C=C2C(=O)Nc3c(Br)cc(Br)cc32)ccc1OCc1ccccc1 [10732/A06]	-1.4	5.7
Cc1c(Br)ccc2c1C(=Cc1ccc(OCc3ccccc3)c(C(C)(C)C)c1)C(=O)N2 [10732/C06]	-43.2	21.6
COc1c(C(C)C)cc(C=C2C(=O)Nc3c(Br)cc(Br)cc32)cc1C(C)C [10732/A03]	0.8	37.4
CNS(=O)(=O)c1ccc2c(c1)C(=Cc1cc(Cl)c(OC)c(C(C)(C)C)c1)C(=O)N2 [10732/D09]	-9.9	40.3
CNS(=O)(=O)c1ccc2c(c1)C(=Cc1coc3ccc([N+](=O)[O-])cc3c1=O)C(=O)N2 [10731/D07]	25.9	45.9
COc1ccc2[nH]cc(C=C3C(=O)Nc4ccc(S(=O)(=O)Nc5ccc(C(F)(F)F)cc5)cc43)c2c1 [10731/E09]	17.2	27.0
CNS(=O)(=O)c1ccc2c(c1)C(=Cc1cc(Br)c(OCc3ccccc3)c(C(C)(C)C)c1)C(=O)N2 [10732/D08]	-20.6	49.4
CNS(=O)(=O)c1ccc2c(c1)C(=Cc1coc3ccc(C(C)C)cc3c1=O)C(=O)N2 [10731/D05]	53.9	92.7
Cc1ccc2occ(C=C3C(=O)Nc4ccc(S(=O)(=O)Nc5ccc(C(F)(F)F)cc5)cc43)c(=O)c2c1 [10731/E06]	10.4	37.7
C=C(C)C1CC=C(C=C2C(=O)Nc3ccc(S(=O)(=O)NC)cc32)CC1 (centres unmarked) [10731/D04]	15.8	24.5
C=C(C)C1CC=C(C=C2C(=O)Nc3ccc(S(=O)(=O)Nc4ccc(C(F)(F)F)cc4)cc32)CC1 (centres unmarked) [10731/E04]	13.6	55.6
COc1c(C(C)C)cc(C=C2C(=O)Nc3ccc(Br)c(C)c32)cc1C(C)C [10732/C03]	1.4	14.0
CNS(=O)(=O)c1ccc2c(c1)C(=Cc1cc(OC)cc(Br)c1O)C(=O)N2 [10718/D03]	61.9	92.9
CNS(=O)(=O)c1ccc2c(c1)C(=Cc1cc(C(C)C)c(Oc3ccccc3)c(C(C)C)c1)C(=O)N2 [10732/D04]	-11.4	40.7
Cc1ccc2occ(C=C3C(=O)Nc4ccc(S(=O)(=O)N5CCOCC5)cc43)c(=O)c2c1 [10731/F06]	7.2	20.9
Cc1cc2occ(C=C3C(=O)Nc4ccc(CCCl)cc43)c(=O)c2cc1C [10731/G03]	7.7	33.7
CNS(=O)(=O)c1ccc2c(c1)C(=Cc1cc(Cl)c(OCc3ccccc3)c(C(C)(C)C)c1)C(=O)N2 [10732/D10]	-16.6	33.1

From patent EP1247803A2, “Indolinone compounds suitable for modulation of protein kinases” (Sugen, Inc., priority 1996, dated 1998)
